Results filed as inconclusive are left out.
Molecular target: Excitatory amino acid transporter 2 (Homo sapiens) (UniProt P43004)
Experiment: wild-type SLC1A2 aspartate uptake modulators, dose response, HEK293 overexpressing cells, iAspSnFR biosensor, flow cytometry (AID 1919672)
Settings: HEK293 SLC1A2-OE

Excitatory amino acid transporter 2 (Homo sapiens), sequence (P43004 whole entry, looked up): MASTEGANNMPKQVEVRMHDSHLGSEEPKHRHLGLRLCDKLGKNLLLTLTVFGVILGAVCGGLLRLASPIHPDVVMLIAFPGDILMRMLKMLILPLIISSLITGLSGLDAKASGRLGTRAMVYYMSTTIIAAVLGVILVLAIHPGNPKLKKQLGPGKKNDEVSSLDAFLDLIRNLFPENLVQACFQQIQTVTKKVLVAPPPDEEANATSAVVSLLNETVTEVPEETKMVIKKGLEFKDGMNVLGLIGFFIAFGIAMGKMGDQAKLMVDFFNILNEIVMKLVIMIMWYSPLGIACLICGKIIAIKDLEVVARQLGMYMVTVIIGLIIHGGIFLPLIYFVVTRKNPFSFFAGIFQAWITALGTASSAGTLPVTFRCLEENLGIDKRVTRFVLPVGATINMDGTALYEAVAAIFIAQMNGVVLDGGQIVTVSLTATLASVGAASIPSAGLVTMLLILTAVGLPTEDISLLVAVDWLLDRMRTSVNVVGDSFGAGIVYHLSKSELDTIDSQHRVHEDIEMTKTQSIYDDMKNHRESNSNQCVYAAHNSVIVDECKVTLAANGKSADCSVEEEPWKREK

N[C@@H](CC(=O)O)C(=O)O
EC50: 11 µM

Reference: PubChem BioAssay AID1919672
